Assay results published in patent US12030868B2, “Prodrugs of CGRP antagonists” (Pfizer Ireland Pharmaceuticals, priority 2018, dated 2024).
Counter-ions that a name gives are not always drawn.

Tests used:
[1] = tested on: Caco-2 cells; assay: Caco-2 permeability assay; format: in vitro ADME, human; details: Caco-2 monolayer, donor 10 μM, 90 minutes, 37° C., pH 7.4; for Papp A-B: apical to basolateral; for Papp B-A: basolateral to apical
Method: (§1) Caco-2 Permeability Assay
(§2) The Caco-2 cells are cultured to confluency, trypsinized and seeded onto a filter transwell insert at a density of ^˜32,000 cells/well in DMEM cell culture medium. Cells are grown in a humidified atmosphere of 5% CO2 at 37° C. Following an overnight attachment period (24 h after seeding), the cell medium is replaced with fresh medium in both the apical and basolateral compartments every other day. The cell monolayers are used for transport studies 21 days post seeding after measuring the TEER values ([…]). The apical sides and basolateral sides are washed consecutively with HBSS 2.5% (v/v), HEPES (pH 7.4) or HBSS 2.5% (v/v), HEPES 10% (v/v), and Fetal Bovine Serum (pH 7.4) at 37° C. in an incubator under an atmosphere of 5% CO2.
(§3) Donor working solution is prepared by dilution of DMSO stock of test article or positive control with transport media to 10 μM.
(§4) For A→B directional transport, the donor working solution (with test article or positive control, with or without Pgp inhibitor) is added to the apical (A) compartment and the transport media as receiver working solution is added to the basolateral (B) compartment. For B→A directional transport, the donor working solution (with positive control or test article, with or without Pgp inhibitor) is added to the basolateral (B) compartment and transport media as receiver working solution is added to the apical (A) compartment.
(§5) The cells are incubated in a humidified atmosphere of 5% CO2 at 37° C. for 90 minutes.
(§6) At the end of the incubation, samples are taken from both donor and receiver compartments and transferred into 96-well assay plates containing internal standard solution (IS) in each well. After centrifugation, the supernatant solutions are transferred to clean 96 well plates and analyzed by LC-MS/MS. The MS detection is performed using a Sciex API 4000 instrument. Each compound is analyzed by reversed phase HPLC.
(§7) The parameters Papp (apparent permeability) and efflux ratio are calculated as follows: Papp=(dQ/dt)×(1/C0)×(1/A) Efflux ratio=Papp[B→A]/Papp[A→B] • where dQ/dt is the permeability rate, C0 is the initial concentration in the donor compartment, and A is the surface area of the cell monolayer (0.33 cm^2). The Papp value is a rate measured in cm/s.
(§8) Comparing the efflux ratios generated in the presence and absence of a Pgp inhibitor identifies whether the test article is a Pgp substrate.
(§9) Recovery is calculated as follows: % Recovery=(Total compound mass in donor and receiver compartments at the end of the incubation/Initial compound mass in the donor compartment)×100.

[2] = Caco-2 permeability assay; format: in vitro ADME, human; details: human, Caco-2 monolayer, donor 10 μM, 37° C., pH 7.4; for Papp A→B at 90 min, 10 μM: apical to basolateral; for Papp B→A at 90 min, 10 μM: basolateral to apical
Method: as §1, §2, §3, §4, §5, §6, §7, §8, §9

Molecule	Papp A→B at 90 min, 10 μM [2] [×10⁻⁶ cm/s]	Papp B→A at 90 min, 10 μM [2] [×10⁻⁶ cm/s]	Papp A-B [1] [×10⁻⁶ cm/s]	Papp B-A [1] [×10⁻⁶ cm/s]
(R)-(7-methyl-5-(3-(4-(1-methylpiperidin-4-yl)piperazin-1-yl)-3-oxo-2-(4-(2-oxo-1,2-dihydroquinolin-3-yl)piperidine-1-carboxamido)propyl)-1H-indazol-1-yl)methyl heptanoate compound with (R)-(7-methyl-5-(3-(4-(1-methylpiperidin-4-yl)piperazin-1-yl)-3-oxo-2-(4-(2-oxo-1,2-dihydroquinolin-3-yl)piperidine-1-carboxamido)propyl)-2H-indazol-2-yl)methyl heptanoate (1:1) [Example 61]	–	–	2.5	1.96
Cc1cc2cc3cn(nc13)COC(=O)C1(C/C=C\CC3(CC3)C(=O)OCn3c(=O)c(cc4ccccc43)C3CCN(CC3)C(=O)N[C@@H](C(=O)N3CCN(C4CCN(C)CC4)CC3)C2)CC1 [Example 13, (16′Z,31′S)-27′-methyl-31′-[4-(1-methylpiperidin-4-yl)piperazine-1-carbonyl]dispiro[cyclopropane-1,14′-[12,21]dioxa-[10,23,32,34,40]pentaazahexacyclo[32.2.2.1^2,10.1^23,26.1^25,29.0^4,9]hentetracontane-19′,1″-cyclopropane]-2′,4′(9′),5′,7′,16′,24′,26′(40′),27′,29′(39′)-nonaene-13′,20′,33′,41′-tetrone trifluoroacetate]	0.839	20	–	–
(R)-(3-(1-(3-(7-methyl-2-(octanoyloxymethyl)-2H-indazol-5-yl)-1-(4-(1-methylpiperidin-4-yl)piperazin-1-yl)-1-oxopropan-2-ylcarbamoyl)piperidin-4-yl)-2-oxoquinolin-1(2H)-yl)methyl octanoate compound with (R)-heptyl 7-methyl-5-(3-(4-(1-methylpiperidin-4-yl)piperazin-1-yl)-2-(4-(1-(octanoyloxymethyl)-2-oxo-1,2-dihydroquinolin-3-yl)piperidine-1-carboxamido)-3-oxopropyl)-1H-indazole-1-carboxylate (1:1) [Example 59]	–	–	2.2	7.6
Cc1cc2cc3cn(nc13)COC(=O)C(C)(C)CCCCC(C)(C)C(=O)OCn1c(=O)c(cc3ccccc31)C1CCN(CC1)C(=O)N[C@@H](C(=O)N1CCN(C3CCN(C)CC3)CC1)C2 [Example 125, (31R)-14,14,19,19,27-pentamethyl-31-[4-(1-methylpiperidin-4-yl)piperazine-1-carbonyl]-12,21-dioxa-10,23,32,34,40-pentaazahexacyclo[32.2.2.1^2,10.1^23,26.1^25,29.0^4,9]hentetraconta-2,4,6,8,24,26(40),27,29(39)-octaene-13,20,33,41-tetrone]	2.2	13.9	–	–
Cc1cc2cc3cn(nc13)COC(=O)C(C)(C)C/C=C\CC(C)(C)C(=O)OCn1c(=O)c(cc3ccccc31)C1CCN(CC1)C(=O)N[C@@H](C(=O)N1CCN(C3CCN(C)CC3)CC1)C2 [Example 10, (16Z,31R)-14,14,19,19,27-pentamethyl-31-[4-(1-methylpiperidin-4-yl)piperazine-1-carbonyl]-12,21-dioxa-10,23,32,34,40-pentaazahexacyclo[32.2.2.1^2,10.1^23,26.1^25,29.0^4,9]hentetraconta-2,4(9),5,7,16,24,26(40),27,29(39)-nonaene-13,20,33,41-tetrone]	0.31	28.9	–	–

More lines, main results first:

Papp A→B at 90 min, 10 μM [2] [×10⁻⁶ cm/s]	Papp B→A at 90 min, 10 μM [2] [×10⁻⁶ cm/s]	Molecule	Papp A-B [1] [×10⁻⁶ cm/s]	Papp B-A [1] [×10⁻⁶ cm/s]
1.13	10.7	CCCCCCN(C)C(=O)OCn1cc2cc(C[C@@H](NC(=O)N3CCC(c4cc5ccccc5n(COC(=O)N(C)CCCCCC)c4=O)CC3)C(=O)N3CCN(C4CCN(C)CC4)CC3)cc(C)c2n1 [Example 93, {5-[(2R)-2-({4-[1-({[hexyl(methyl)carbamoyl]oxy}methyl)-2-oxo-1,2-dihydroquinolin-3-yl]piperidine-1-carbonyl}amino)-3-[4-(1-methylpiperidin-4-yl)piperazin-1-yl]-3-oxopropyl]-7-methyl-2H-indazol-2-yl}methyl N-hexyl-N-methylcarbamate]	–	–
< 0.05	–	Cc1cc(C[C@@H](NC(=O)N2CCC(c3cc4ccccc4[nH]c3=O)CC2)C(=O)N2CCN(C3CCN(C)CC3)CC2)cc2cn[nH]c12 [BHV-3500, N-[(2R)-3-(7-methyl-1H-indazol-5-yl)-1-[4-(1-methylpiperidin-4-yl)piperazin-1-yl]-1-oxopropan-2-yl]-4-(2-oxo-1,2-dihydroquinolin-3-yl)piperidine-1-carboxamide, reference compound]	–	–
5.1	2.9	Cc1cc(C[C@@H](NC(=O)N2CCC(c3cc4ccccc4n(COC(=O)C(C)(C)C)c3=O)CC2)C(=O)N2CCN(C3CCN(C)CC3)CC2)cc2cn(COC(=O)C(C)(C)C)nc12 [Example 4, {5-[(2R)-2-{[4-(1-{[(2,2-dimethylpropanoyl)oxy]methyl}-2-oxo-1,2-dihydroquinolin-3-yl)piperidine-1-carbonyl]amino}-3-[4-(1-methylpiperidin-4-yl)piperazin-1-yl]-3-oxopropyl]-7-methyl-2H-indazol-2-yl}methyl 2,2-dimethylpropanoate trifluoroacetate]	–	–
